Tested on: apyrase
Experiment: Screen for apyrase inhibitors (Method 1, in vitro phosphate-release absorbance assay)
Type: biochemical
Conditions: inhibitor conc at 1 mM stock, 1 hr room temperature, absorbance 630 nm; rounded average of two assay results
Method in brief: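 Phosphate-release colorimetric assay (Windsor method) in 60 mM Hepes, 3 mM MgCl2, 3 mM CaCl2, 3 mM ATP, pH 6.5, with compound or DMSO control added. Released phosphate developed with ammonium molybdate and ascorbic acid/TCA, then stopped with citrate/acetic acid.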

Row | Structure (SMILES) | % Inhibition of Apyrase
1 | CN(c1ccccc1)S(=O)(=O)c1cccc(NC(=O)c2cccs2)c1 [I-710, N-(3-(N-methyl-N-phenylsulfamoyl)phenyl)thiophene-2-carboxamide] | 60%
2 | CCOc1ncccc1C(=O)Nc1cccc(S(=O)(=O)N(C)c2ccccc2)c1 [I-711, 2-ethoxy-N-(3-(N-methyl-N-phenylsulfamoyl)phenyl)nicotinamide] | 60%
3 | O=C(Nc1cccc(S(=O)(=O)Nc2ccc(Cl)cc2)c1)c1ccoc1 [I-712, N-(3-(N-(4-chlorophenyl)sulfamoyl)phenyl)furan-3-carboxamide] | 59%
4 | Cc1cc(C(=O)Nc2cccc(S(=O)(=O)Nc3ccccc3Cl)c2)sc1C [I-713, N-(3-(N-(2-chlorophenyl)sulfamoyl)phenyl)-4,5-dimethylthiophene-2-carboxamide] | 58%
5 | COc1ccc(NS(=O)(=O)c2cccc(NC(=O)c3ccc(Cl)nc3)c2)cc1 [I-714, 6-chloro-N-(3-(N-(4-methoxyphenyl)sulfamoyl)phenyl) nicotinamide] | 58%
6 | O=C(Nc1cccc(S(=O)(=O)Nc2cccc(C(F)(F)F)c2)c1)c1cc2ccccc2o1 [I-715, N-(3-(N-(3-(trifluoromethyl)phenyl)sulfamoyl)phenyl) benzofuran-2-carboxamide] | 58%
7 | CN(c1ccccc1)S(=O)(=O)c1cccc(NC(=O)c2ccsc2)c1 [I-716, N-(3-(N-methyl-N-phenylsulfamoyl)phenyl)thiophene-3-carboxamide] | 58%
8 | O=C(Nc1cccc(S(=O)(=O)Nc2ccc(Cl)cc2)c1)c1ccsc1 [I-717, N-(3-(N-(4-chlorophenyl)sulfamoyl)phenyl)thiophene-3-carboxamide] | 58%
9 | O=C(Nc1cccc(S(=O)(=O)Nc2cccc(C(F)(F)F)c2)c1)c1ccsc1 [I-718, N-(3-(N-(3-(trifluoromethyl)phenyl)sulfamoyl)phenyl) thiophene-3-carboxamide] | 58%
10 | CN(c1ccccc1)S(=O)(=O)c1cccc(NC(=O)c2cncc(Br)c2)c1 [I-720, 5-bromo-N-(3-(N-methyl-N-phenylsulfamoyl)phenyl)nicotinamide] | 58%
11 | COC(=O)c1c(C)[nH]c(C(=O)Nc2cccc(S(=O)(=O)Nc3cccc(C(F)(F)F)c3)c2)c1C [I-721, methyl 2,4-dimethyl-5-((3-(N-(3-(trifluoromethyl)phenyl)sulfamoyl)phenyl)carbamoyl)-1H-pyrrole-3-carboxylate] | 57%
12 | CN(c1ccccc1)S(=O)(=O)c1cccc(NC(=O)c2ccc(Br)o2)c1 [I-722, 5-bromo-N-(3-(N-methyl-N-phenylsulfamoyl)phenyl)furan-2-carboxamide] | 57%
13 | O=C(Nc1cccc(S(=O)(=O)Nc2ccc(I)cc2)c1)c1ccccn1 [I-723, N-(3-(N-(4-iodophenyl)sulfamoyl)phenyl)picolinamide] | 57%
14 | O=C(Nc1cccc(S(=O)(=O)Nc2cccc(C(F)(F)F)c2)c1)c1cc2c(s1)CCCC2 [I-724, N-(3-(N-(3-(trifluoromethyl)phenyl)sulfamoyl)phenyl)-4,5,6,7-tetrahydrobenzo[b]thiophene-2-carboxamide] | 57%
15 | O=C(Nc1cccc(S(=O)(=O)Nc2cccc(C(F)(F)F)c2)c1)c1ccc(Cl)nc1 [I-725, 6-chloro-N-(3-(N-(3-(trifluoromethyl)phenyl)sulfamoyl)phenyl) nicotinamide] | 57%
16 | O=C(Nc1cccc(S(=O)(=O)Nc2cccc(Cl)c2)c1)c1ccc(Br)s1 [I-726, 5-bromo-N-(3-(N-(3-chlorophenyl)sulfamoyl)phenyl)thiophene-2-carboxamide] | 56%

Row | Structure (SMILES) | % Inhibition of Apyrase
17 | COc1ccc(NS(=O)(=O)c2cccc(NC(=O)c3[nH]c(C)c(C(C)=O)c3C)c2)cc1 [I-727, 4-acetyl-N-(3-(N-(4-methoxyphenyl)sulfamoyl)phenyl)-3,5-dimethyl-1H-pyrrole-2-carboxamide] | 56%
18 | O=C(Nc1cccc(S(=O)(=O)Nc2ccc(SC(F)F)cc2)c1)c1ccsc1 [I-728, N-(3-(N-(4-((difluoromethyl)thio)phenyl)sulfamoyl)phenyl) thiophene-3-carboxamide] | 56%
19 | O=C(Nc1cccc(S(=O)(=O)Nc2ccccc2)c1)c1cccc(Cl)n1 [I-729, 6-chloro-N-(3-(N-phenylsulfamoyl)phenyl)picolinamide] | 56%
20 | O=C(Nc1cccc(S(=O)(=O)Nc2ccccc2Cl)c1)c1ccc([N+](=O)[O-])s1 [I-730, N-(3-(N-(2-chlorophenyl)sulfamoyl)phenyl)-5-nitrothiophene-2-carboxamide] | 55%
21 | Cc1cc(C(=O)Nc2cccc(S(=O)(=O)Nc3ccccc3F)c2)no1 [I-731, N-(3-(N-(2-fluorophenyl)sulfamoyl)phenyl)-5-methylisoxazole-3-carboxamide] | 55%
22 | CN(c1ccccc1)S(=O)(=O)c1cccc(NC(=O)c2cnc3n(c2=O)CCS3)c1 [I-732, N-(3-(N-methyl-N-phenylsulfamoyl)phenyl)-5-oxo-2,3-dihydro-5H-thiazolo[3,2-a]pyrimidine-6-carboxamide] | 55%
23 | COc1ncccc1C(=O)Nc1cccc(S(=O)(=O)Nc2ccc(Cl)cc2)c1 [I-733, N-(3-(N-(4-chlorophenyl)sulfamoyl)phenyl)-2-methoxynicotinamide] | 54%
24 | O=C(Nc1cccc(S(=O)(=O)Nc2ccccc2Cl)c1)c1ccc2ccccc2n1 [I-734, N-(3-(N-(2-chlorophenyl)sulfamoyl)phenyl)quinoline-2-carboxamide] | 54%
25 | COc1ccccc1NS(=O)(=O)c1cccc(NC(=O)c2ccc(=O)n(Cc3ccccc3)n2)c1 [I-735, 1-benzyl-N-(3-(N-(2-methoxyphenyl)sulfamoyl)phenyl)-6-oxo-1,6-dihydropyridazine-3-carboxamide] | 53%
26 | COc1ccc(NS(=O)(=O)c2cccc(NC(=O)c3n[nH]c(=O)c4ccccc34)c2)cc1 [I-736, N-(3-(N-(4-methoxyphenyl)sulfamoyl)phenyl)-4-oxo-3,4-dihydrophthalazine-1-carboxamide] | 53%
27 | O=C(Nc1cccc(S(=O)(=O)Nc2ccc(Cl)cc2)c1)c1ccc(=O)n(Cc2ccccc2)n1 [I-737, 1-benzyl-N-(3-(N-(4-chlorophenyl)sulfamoyl)phenyl)-6-oxo-1,6-dihydropyridazine-3-carboxamide] | 53%
28 | Cc1ccc(Br)c(NS(=O)(=O)c2cccc(NC(=O)c3ccc(C)nc3)c2)c1 [I-738, N-(3-(N-(2-bromo-5-methylphenyl)sulfamoyl)phenyl)-6-methylnicotinamide] | 52%
29 | CN(c1ccccc1)S(=O)(=O)c1cccc(NC(=O)c2cc(Cl)nc3ccccc23)c1 [I-739, 2-chloro-N-(3-(N-methyl-N-phenylsulfamoyl)phenyl)quinoline-4-carboxamide] | 52%
30 | Cc1ccc(C(=O)Nc2cccc(S(=O)(=O)Nc3cccc(C(F)(F)F)c3)c2)cn1 [I-740, 6-methyl-N-(3-(N-(3-(trifluoromethyl)phenyl)sulfamoyl)phenyl)nico tinamide] | 51%
31 | O=C(Nc1cccc(S(=O)(=O)Nc2cccc(Cl)c2)c1)c1ccccn1 [I-741, N-(3-(N-(3-chlorophenyl)sulfamoyl)phenyl)picolinamide] | 50%

Reference: US12685312B2, “Sulfonamide apyrase inhibitors” (Texas Crop Science, Inc., priority 2022, dated 2026)
